Laboratory results from patent US20230364057A1, “BACTERIAL DNA GYRASE INHIBITORS AND METHODS OF USE THEREOF” (THE FLORIDA INTERNATIONAL UNIVERSITY BOARD OF TRUSTEES, priority 2022, published 2023).
Values after ≈ are worked out from the molar mass of the structure shown. Values joined by “and” are separate entries in the source; they are usually repeats but may differ in a detail not shown here. Equal entries are not always repeated. “Also recorded” adds a separate entry of the source. Where two headings read alike, the source gives them in different places.

Legend:
Mtb = Mtb whole cell assay (% inhibition, MIC); assay type: cell-based, Mycobacterium tuberculosis; conditions: for inhibition at 20 µM / MIC: Mycobacterium tuberculosis; for inhibition at 20 µM: Table 5 (same values in Table 6 at 20 µM)
MRSA = assay: Minimum inhibitory concentration, broth microdilution; conditions: for MIC: Staphylococcus aureus, MRSA
[1] = target: human DNA topoisomerase IIα (Homo sapiens (Human), UniProt P11388); assay: Agarose gel-based inhibition assay against human DNA topoisomerase IIα; assay type: biochemical
Sequence of human DNA topoisomerase IIα (P11388 whole entry): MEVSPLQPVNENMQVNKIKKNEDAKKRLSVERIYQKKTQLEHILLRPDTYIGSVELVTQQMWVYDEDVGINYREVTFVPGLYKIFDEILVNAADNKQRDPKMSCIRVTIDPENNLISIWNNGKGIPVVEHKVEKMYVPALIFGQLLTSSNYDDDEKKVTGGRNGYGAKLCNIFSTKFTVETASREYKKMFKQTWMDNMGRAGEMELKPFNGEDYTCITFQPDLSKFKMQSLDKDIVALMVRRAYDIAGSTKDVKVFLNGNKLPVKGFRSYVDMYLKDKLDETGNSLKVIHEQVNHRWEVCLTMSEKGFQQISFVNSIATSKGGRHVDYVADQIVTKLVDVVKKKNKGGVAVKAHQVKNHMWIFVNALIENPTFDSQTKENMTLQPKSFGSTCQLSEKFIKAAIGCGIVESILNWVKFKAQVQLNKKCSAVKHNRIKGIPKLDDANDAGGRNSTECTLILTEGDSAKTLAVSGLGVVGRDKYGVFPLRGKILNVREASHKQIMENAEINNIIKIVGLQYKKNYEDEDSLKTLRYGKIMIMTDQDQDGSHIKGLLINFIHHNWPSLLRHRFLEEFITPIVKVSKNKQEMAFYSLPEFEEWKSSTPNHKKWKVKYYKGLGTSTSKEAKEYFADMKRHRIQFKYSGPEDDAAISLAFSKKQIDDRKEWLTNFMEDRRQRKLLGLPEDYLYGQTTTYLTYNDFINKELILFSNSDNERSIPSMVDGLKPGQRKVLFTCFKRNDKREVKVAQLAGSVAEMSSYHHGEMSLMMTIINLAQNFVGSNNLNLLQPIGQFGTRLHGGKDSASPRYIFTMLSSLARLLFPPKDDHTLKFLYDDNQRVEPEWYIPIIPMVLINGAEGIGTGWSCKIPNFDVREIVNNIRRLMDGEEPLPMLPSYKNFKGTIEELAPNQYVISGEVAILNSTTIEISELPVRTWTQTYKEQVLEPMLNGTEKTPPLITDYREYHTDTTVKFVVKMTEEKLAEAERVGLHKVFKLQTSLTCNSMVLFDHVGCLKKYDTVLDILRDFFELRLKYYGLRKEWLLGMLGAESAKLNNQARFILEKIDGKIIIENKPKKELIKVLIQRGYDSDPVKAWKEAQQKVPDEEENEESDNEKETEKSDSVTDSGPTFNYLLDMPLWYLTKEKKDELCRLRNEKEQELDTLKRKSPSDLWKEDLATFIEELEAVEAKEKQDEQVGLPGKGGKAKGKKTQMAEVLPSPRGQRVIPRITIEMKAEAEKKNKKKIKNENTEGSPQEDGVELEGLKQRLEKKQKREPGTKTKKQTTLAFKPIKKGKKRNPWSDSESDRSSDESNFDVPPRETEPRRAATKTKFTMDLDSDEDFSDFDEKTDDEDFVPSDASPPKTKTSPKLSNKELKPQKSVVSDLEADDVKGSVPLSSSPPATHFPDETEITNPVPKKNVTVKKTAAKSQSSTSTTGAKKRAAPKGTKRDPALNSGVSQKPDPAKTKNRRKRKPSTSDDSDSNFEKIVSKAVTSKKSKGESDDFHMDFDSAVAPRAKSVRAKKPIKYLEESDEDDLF

E. coli DNA gyrase [2] = target: T1, E. coli DNA gyrase (Escherichia coli (strain K12), UniProt P0AES4+P0AES6); assay: biochemical; assay type: biochemical
J774 = conditions: 200 µM
in vitro [3] = conditions: human
E. coli DNA gyrase [4] = target: T1, E. coli DNA gyrase; assay: Agarose gel-based DNA gyrase inhibition assay; assay type: biochemical
Description: 100 ng of DNA gyrase was used to supercoil the rx pAB1 in the presence of different concentrations of a gyrase inhibitor. […] Samples were analyzed by electrophoresis in 1% w/v agarose gels followed by ethidium bromide staining and photographed under UV light.

Mtb DNA gyrase = Mtb DNA gyrase (Mycobacterium tuberculosis (strain ATCC 25618 / H37Rv), UniProt P9WG45+P9WG47); assay: Mtb DNA gyrase inhibition assay (gel-based); assay type: biochemical
Outline: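 Supercoiling by 100 ng Mtb gyrase of 400 ng relaxed pAB1 in buffer with 1.75 mM ATP, pH 7.5, across inhibitor concentrations. Reactions ran 15 min at 37° C, stopped with SDS/EDTA. Products resolved on 1% agarose, ethidium bromide-stained; IC50 determined from gels.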

in vitro [5] = conditions: mouse
S. aureus (ATCC 14775) = assay: Minimum inhibitory concentration, broth microdilution; conditions: for MIC: Staphylococcus aureus
Description: (§1) Antibacterial minimum inhibitory concentrations (MICs) were obtained from three independent experiments using broth microdilution methods in 96-well plates according to Clinical and Laboratory Standards Institute guidelines. Cells were culture from singles colonies in MHIIB medium for 24 h at 37° C. in agitation (200 RPM). The cultures were then diluted using the same media to reach an OD600 of 0.1. Then, 50 µL of the diluted cultures were added to the plates holding 50 µL of serially diluted compounds in MHIIB. The plates were incubated at 37° C. for 20 h. The starting inoculum was fixated to 10^5 colony-forming units per ml.

M. abscessus = assay: MIC against M. abscessus; assay type: cell-based, Mycobacterium abscessus; conditions: Mycobacteroides abscessus
E. coli (ATCC 25922) = assay: Minimum inhibitory concentration, broth microdilution; conditions: for MIC: Escherichia coli
Description: as §1

[6] = system: NCI panel of 60 cancer cell lines; conditions: up to 1 mM; results of NCI DTP; cited from earlier work
B. subtilis (ATCC 6633) = assay: Minimum inhibitory concentration, broth microdilution; conditions: for MIC: Bacillus subtilis, ATCC6633, read-out: Minimum Inhibitory Concentration B.subtilis
E. coli DNA gyrase [7] = target: T1, E. coli DNA gyrase; conditions: known inhibitors of the LOPAC library; read-out: inhibition IC50 against E. coli DNA gyrase; cited from earlier work
E. coli DNA gyrase [8] = target: T1, E. coli DNA gyrase; assay: DNA gyrase mediated DNA cleavage assay; assay type: biochemical; conditions: pBR322
Description: 250 ng of supercoiled pBR322 plasmid were incubated with 50 nM of E. coli DNA gyrase in reactions containing 35 mM Tris-HCl, 24 mM KCl, 4 mM MgCl2, 2 mM DTT, 0.1 mg/mL BSA, 6.5% glycerol, and 1.75 mM ATP, in presence of 200 µM of compounds, at 37° C. for 15 min. Then, 0.2% (w/v) of SDS and 0.1 mg/mL proteinase K were added, and samples were incubated at 37° C. for 1 h. […] Samples were examined by electrophoresis in 1% w/v agarose gel containing 0.5 µg/mL ethidium bromide and photographed under UV light.

E. coli DNA gyrase [9] = target: T1, E. coli DNA gyrase; assay: SDFQ-based DNA gyrase inhibition assay; assay type: biochemical; conditions: SDFQ-based, three independent experiments; read-out: IC50 against E. coli DNA gyrase
Description: 100 ng of DNA gyrase was used to supercoil the rx pAB1_FL905 in the presence of different concentrations of a gyrase inhibitor. […] The IC50 values were estimated by nonlinear fitting of the following equation: […]
where F is the fluorescence intensity at the x concentration of an min inhibitor. Fmax and Fmin are the maximum and minimum fluorescence of the DNA sample, respectively. P is a slope parameter.

[10] = target: human DNA topoisomerase 2α (Homo sapiens (Human), UniProt P11388); assay: Human DNA topoisomerase 2α-mediated DNA cleavage assay; assay type: biochemical; conditions: pBR322
Sequence of human DNA topoisomerase 2α (P11388 whole entry): as above

E. coli DNA gyrase [11] = target: T1, E. coli DNA gyrase; assay: SDFQ HTS primary assay (1536-well, pAB1_FL905); assay type: biochemical
Description: SDFQ HTS primary assay using pAB1_FL905 was performed in 2 µL of (1 xDNA gyrase buffer: 20 mM Tris-Acetate pH 7.9, 50 mM KAc, 10 mM MgCl2, 2 mM DTT, 1 mM ATP, 0.1 mg/mL BSA). […] 3) Spun plate at 800 rpm for 30 seconds.

[12] = target: E. coli DNA topoisomerase IV (Escherichia coli (strain K12), UniProt P0AFI2+P20083); assay: E. coli DNA topoisomerase IV relaxation assay (gel-based); assay type: biochemical
Sequence of E. coli DNA topoisomerase IV (P0AFI2 whole entry, looked up): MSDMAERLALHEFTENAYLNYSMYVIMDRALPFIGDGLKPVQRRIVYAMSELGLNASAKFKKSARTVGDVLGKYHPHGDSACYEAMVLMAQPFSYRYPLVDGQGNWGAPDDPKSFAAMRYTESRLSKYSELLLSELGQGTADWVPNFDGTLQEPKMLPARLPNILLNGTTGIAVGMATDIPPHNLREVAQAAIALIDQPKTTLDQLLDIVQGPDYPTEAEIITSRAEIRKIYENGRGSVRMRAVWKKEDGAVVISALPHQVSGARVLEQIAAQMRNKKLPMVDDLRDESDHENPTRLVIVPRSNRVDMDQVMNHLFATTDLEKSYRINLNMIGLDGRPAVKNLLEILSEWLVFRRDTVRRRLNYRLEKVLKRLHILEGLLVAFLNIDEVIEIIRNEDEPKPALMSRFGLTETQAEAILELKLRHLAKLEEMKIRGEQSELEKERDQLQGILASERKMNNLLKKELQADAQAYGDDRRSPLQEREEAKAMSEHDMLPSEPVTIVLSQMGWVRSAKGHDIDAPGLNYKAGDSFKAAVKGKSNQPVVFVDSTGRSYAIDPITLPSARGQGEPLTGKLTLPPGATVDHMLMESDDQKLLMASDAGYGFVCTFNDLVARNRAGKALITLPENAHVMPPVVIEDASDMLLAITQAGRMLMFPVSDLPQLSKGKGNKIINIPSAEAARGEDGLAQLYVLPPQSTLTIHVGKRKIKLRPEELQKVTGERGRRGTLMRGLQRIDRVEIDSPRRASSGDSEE
Sequence of E. coli DNA topoisomerase IV (P20083 whole entry, looked up): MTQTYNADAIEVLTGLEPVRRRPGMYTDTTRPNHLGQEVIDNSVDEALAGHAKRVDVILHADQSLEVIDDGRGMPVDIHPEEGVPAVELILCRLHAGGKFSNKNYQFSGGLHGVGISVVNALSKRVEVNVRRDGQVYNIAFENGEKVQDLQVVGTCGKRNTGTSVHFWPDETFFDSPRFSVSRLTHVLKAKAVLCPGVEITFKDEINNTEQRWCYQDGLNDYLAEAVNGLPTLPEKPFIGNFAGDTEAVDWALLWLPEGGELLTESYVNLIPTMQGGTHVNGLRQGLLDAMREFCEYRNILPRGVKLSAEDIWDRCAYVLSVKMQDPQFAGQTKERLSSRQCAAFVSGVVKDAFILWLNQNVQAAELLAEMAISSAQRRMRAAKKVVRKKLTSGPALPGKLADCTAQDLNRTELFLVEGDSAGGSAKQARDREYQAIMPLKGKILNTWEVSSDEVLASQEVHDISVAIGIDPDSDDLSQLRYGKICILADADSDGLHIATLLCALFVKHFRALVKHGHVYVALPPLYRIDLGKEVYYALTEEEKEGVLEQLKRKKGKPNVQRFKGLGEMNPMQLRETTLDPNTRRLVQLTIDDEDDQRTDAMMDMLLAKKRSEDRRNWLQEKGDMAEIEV
Description: Relaxation assays by E. coli DNA topoisomerase IV and the ATPase assays were performed. […] Lane 1 is supercoiled plasmid pAB1. […] The supercoiled, fluorescently-labeled plasmid pAB1_FL905 was used.

[13] = read-out: Minimum Inhibitory Concentration S.aureus MRSA
[14] = IC50 (µM) EC, Table 5, E. coli gyrase
[15] = Table 5, Mtb gyrase, read-out: IC50 (µM) Mtb
[16] = ATCC14775, read-out: MIC (µM) SA
[17] = ATCC14775, read-out: Minimum Inhibitory Concentration S.aureus
[18] = Table 10, read-out: IC50 (µM) Mtb gyrase
[19] = ATCC14775, read-out: MIC (µM) Sa
[20] = IC50 against E. coli DNA gyrase

Description for E. coli imp: as §1

In the case of Cc1c(CCC(=O)O)c(=O)oc2c(C)c3occ(-c4ccc(-c5ccccc5)cc4)c3cc12 [Compound 119], the “activity against Mtb” value (Mtb) is reported as “most active”, the inhibition at 20 µM (Mtb) is reported as 70.4% and the MIC (MRSA; read-out: MIC (µM) MRSA) is reported as 0.8 µM (≈ 0.351 µg/mL). For the same compound, the MIC (MRSA; [13]) was 0.78 µM (≈ 0.342 µg/mL), the IC50 [1] was 133 µM and the IC50 (E. coli DNA gyrase [2]; [14]) was 7.7 µM. For the same compound, the “cytotoxicity J774” value (J774) was “no cytotoxicity”, the IC50 (in vitro [3]) was > 200 µM and the “inhibition of E. coli DNA gyrase activities” value (E. coli DNA gyrase [4]; 50 µM of compounds) was “completely inhibited”. For the same compound, the “inhibition of Mtb DNA gyrase activities” value (Mtb DNA gyrase) was “potent Mtb gyrase inhibitors”, the IC50 (Mtb DNA gyrase; [15]) was 16 µM and the IC50 (in vitro [5]) was > 200 µM. The MIC (S. aureus (ATCC 14775); [16]) was 0.8 µM (≈ 0.351 µg/mL) and the MIC (S. aureus (ATCC 14775); [17]) was 0.78 µM (≈ 0.342 µg/mL).

With C[n+]1c(-c2ccc(/C=C/C=N/NC(=O)c3ccc(C(=O)N/N=C/c4ccc(-c5cn6ccccc6[n+]5C)cc4)cc3)cc2)cn2ccccc21 [Compound 261] the MIC (Mtb) was 109 µM, the MIC (M. abscessus) was 22.9 µM and the IC50 (in vitro [3]) was > 200 µM. For the same compound, the IC50 (Mtb DNA gyrase; [18]) was 9.3 µM, the MIC (E. coli (ATCC 25922); ATCC25922, read-out: MIC (µM) Ec, E. coli strain ATCC25922) was 50 µM and the MIC (S. aureus (ATCC 14775); [19]) was > 200 µM. The “cytotoxicity against the NCI panel of 60 cancer cell lines” value [6] was “no cytotoxicity”.

In the case of Cc1c(CCC(=O)O)c(=O)oc2c(C)c3occ(-c4ccc5ccccc5c4)c3cc12 [Compound 124], the “activity against Mtb” value (Mtb) is reported as “most active”, the inhibition at 20 µM (Mtb) is reported as 80.4% and the MIC (MRSA; read-out: MIC (µM) MRSA) is reported as 1.6 µM (≈ 0.66 µg/mL). It also gave an MIC (MRSA; [13]) of 1.56 µM (≈ 0.643 µg/mL), an IC50 [1] of 117 µM and an IC50 (E. coli DNA gyrase [2]; [14]) of 5.5 µM. The “cytotoxicity J774” value (J774) was “no cytotoxicity”, the IC50 (in vitro [3]) was > 200 µM and the “inhibition of E. coli DNA gyrase activities” value (E. coli DNA gyrase [4]; 50 µM of compounds) was “completely inhibited”. The “inhibition of Mtb DNA gyrase activities” value (Mtb DNA gyrase) was “potent Mtb gyrase inhibitors”, the IC50 (Mtb DNA gyrase; [15]) was 3 µM and the IC50 (in vitro [5]) was > 200 µM. The MIC (S. aureus (ATCC 14775); [16]) was 1.6 µM (≈ 0.66 µg/mL) and the MIC (S. aureus (ATCC 14775); [17]) was 1.56 µM (≈ 0.643 µg/mL).

In the case of biphenyl gallate, the “MIC MRSA ATCC 33591” value (MRSA) is reported as 50 µM, the “MIC S. aureus (MRSA) ATCC BAA44” value (MRSA) is reported as 16 µg/mL and the “MIC B. subtilis ATCC 6633” value (B. subtilis (ATCC 6633)) is reported as 16 µg/mL and 50-100 µM. The “MIC E coli ATCC 25922” value (E. coli (ATCC 25922)) was >200 µM, the “MIC E. coli ATCC 25922” value (E. coli (ATCC 25922)) was 517.29 µg/mL and the “MIC S. aureus ATCC 14775” value (S. aureus (ATCC 14775)) was 16 µg/mL and 50 µM. For the same compound, the “MIC E. coli imp” value (E. coli imp; Table 7) was 36.43 µg/mL and the “MIC E. coli imp BAS3023” value (E. coli imp; Table 9) was 200 µM.

For CCn1cc(C(=O)O)c(=O)c2ccc(C)nc21 [nalidixic acid], the IC50 (E. coli DNA gyrase [7]) is given as > 30 µM.

With CC(OC(=O)c1cc(O)c2ccccc2c1O)C(=O)Nc1ccc(C(N)=O)cc1 (stereo not shown) [Compound 40, 1-[(4-carbamoylphenyl)carbamoyl]ethyl 1,4-dihydroxynaphthalene-2-carboxylate] the “E. coli DNA gyrase-mediated DNA breaks and nicking” value (E. coli DNA gyrase [8]) was “causes DNA gyrase-mediated double stranded DNA breaks and DNA nicking; also recorded: causes gyrase-mediated DNA double-stranded breaks and single-stranded nicks”, the “inhibition of human DNA topoisomerase IIα” value ([1]; gallates at 100 µM) was “does not inhibit” and the IC50 (E. coli DNA gyrase [2]; IC50 (50-200 µM), bin of Table 2) was 50 to 200 µM. For the same compound, the IC50 (E. coli DNA gyrase [2]; [20]) was 50 µM, the “anti Bacillu subtilis activities” value (B. subtilis (ATCC 6633)) was 39 µg/mL and the MIC (B. subtilis (ATCC 6633)) was 100 µM (≈ 39.4 µg/mL). The “inhibition of E. coli DNA gyrase activities” value (E. coli DNA gyrase [4]; 200 µM of compounds) was “completely inhibited”, the IC50 (E. coli DNA gyrase [9]) was 47.6 ± 3.7 µM and the “human topoisomerase 2α-mediated DNA nicks and double-stranded breaks” value [10] was “does not cause”.

In the case of N[C@@H]1[C@H]2CN(c3nc4c(cc3F)c(=O)c(C(=O)O)cn4-c3ccc(F)cc3F)C[C@@H]12 [trovafloxacin], the “inhibition activities against E. coli DNA gyrase” value (E. coli DNA gyrase [11]; LOPAC library, 5 µM) is reported as “more than 40%”.

In the case of C[n+]1c(-c2ccc(NC(=O)c3ccc(C(=O)Nc4ccc(-c5cn6ccccc6[n+]5C)cc4)cc3)cc2)cn2ccccc21 [Compound 263], the MIC (Mtb) is reported as 11.3 µM, the MIC (M. abscessus) is reported as > 200 µM and the IC50 (in vitro [3]) is reported as > 200 µM. The IC50 (Mtb DNA gyrase; [18]) was 7.7 µM, the MIC (S. aureus (ATCC 14775); [19]) was 0.39 µM and the “cytotoxicity against the NCI panel of 60 cancer cell lines” value [6] was “no cytotoxicity”.

For CCn1cc(C(=O)O)c(=O)c2cc3c(cc21)OCO3 [oxolinic acid], the IC50 (E. coli DNA gyrase [7]) is listed as > 30 µM.

With N=C(N)Nc1nc(-c2ccccc2)c2cc(Cl)ccc2n1 [Compound 154, N-(6-chloro-4-phenylquinazolin-2-yl)guanidine] the “E. coli DNA gyrase-mediated DNA breaks and nicking” value (E. coli DNA gyrase [8]) was “causes the gyrase-mediated DNA double-stranded breaks and single-stranded nicks”, the MIC (MRSA; [13]) was 25 µM (≈ 7.44 µg/mL) and the IC50 [1] was ~50 µM. For the same compound, the IC50 (E. coli DNA gyrase [2]; [20]) was 7 µM, the MIC (B. subtilis (ATCC 6633)) was 25 µM (≈ 7.44 µg/mL) and the “inhibition of E. coli DNA gyrase activities” value (E. coli DNA gyrase [4]; 50 µM of compounds) was “completely inhibited”. For the same compound, the MIC (E. coli (ATCC 25922); ATCC25922, read-out: Minimum Inhibitory Concentration E. coli, Tables 3a-3c) was 50 µM (≈ 14.9 µg/mL), the IC50 (E. coli DNA gyrase [9]) was 3.1 ± 0.7 µM and the “inhibition of E. coli DNA topoisomerase IV” value [12] was “inhibits”. For the same compound, the MIC (S. aureus (ATCC 14775); [17]) was 25 µM (≈ 7.44 µg/mL) and the “human topoisomerase 2α-mediated DNA nicks and double-stranded breaks” value [10] was “causes the human topoisomerase 2a-mediated DNA nicks and double-stranded breaks”.

For O=C(O)C1=CC(=C(c2ccc(O)c(C(=O)O)c2)c2ccc(O)c(C(=O)O)c2)C=CC1=O [aurintricarboxylic acid], the inhibition at 5 µM (E. coli DNA gyrase [11]; read-out: inhibition activities against E. coli DNA gyrase) was > 40%.
